Experiment: molar heat capacity at constant pressure; xn = mol fraction of the nth substance listed
Conditions: 100 kPa, Liquid, DSC

CCOC(F)(C(F)(F)C(F)(F)C(F)(F)F)C(F)(C(F)(F)F)C(F)(F)F (stereo not given) [2-trifluoromethyl-3-ethoxydodecafluorohexane] + CC(C)OC(C)C
molar heat capacity at constant pressure [J/K/mol]
Conditions	x1 = 0.25	x1 = 0.375	x1 = 0.5	x1 = 0.625	x1 = 0.75	x1 = 1
290.5 K	277.26	310.54	342.56	375.58	407.39	–
295.44 K	279.61	312.95	345.14	378.55	410.41	–
297.91 K	–	–	–	–	–	466.29
300.38 K	281.77	315.36	347.98	381.52	413.77	–
305.32 K	284.47	317.99	350.3	384.2	416.46	–
307.79 K	–	–	–	–	–	472.92
310.26 K	287.71	320.4	353.14	387.17	419.82	–
315.2 K	290.42	322.81	355.98	390.14	422.85	–
317.66 K	–	–	–	–	–	479.54
320.13 K	293.12	325.66	358.82	393.11	425.87	–
325.07 K	295.64	328.29	361.66	396.08	428.9	–
327.54 K	–	–	–	–	–	486.58
330.01 K	298.16	330.92	364.5	399.35	432.26	–
334.95 K	300.69	333.77	367.08	402.32	434.61	–
337.42 K	–	–	–	–	–	494.03
339.89 K	303.21	336.4	369.66	405.29	437.97	–
347.29 K	–	–	–	–	–	500.66
357.17 K	–	–	–	–	–	508.53
367.05 K	–	–	–	–	–	517.23
376.92 K	–	–	–	–	–	523.85
386.8 K	–	–	–	–	–	531.72

From the NIST ThermoML archive (doi:10.1016/j.jct.2018.08.005)
